According to article PMC11801377, “A uniquely efficacious type of CFTR corrector with complementary mode of action” (Science Advances, 2024):

Biological target: F508del-CFTR (Homo sapiens, UniProt P13569, DEL508-508)
Assay: Halide-sensitive YFP quenching assay in U2OS-F508del-CFTR-YFP cells
Assay type: cell-based
Parameters: host or cells: U2OS (PathHunter U2OS-F508del-CFTR MEM-EA)
Settings: overnight treatment; acute forskolin and IVA 2 nM
Method: U2OS-F508del-CFTR cells expressing Topaz-YFP F46L/H148Q/I152L were seeded at 20,000 cells per well into 384-well black clear-bottom plates in 40 μl per well growth medium (Mc COY’s 5A, Gibco, 10% FBS, penicillin/streptomycin), containing the various CFTR correctors at the indicated concentrations. The cells were coincubated with the compounds for 24 hours (37°C, 5% CO2). The next day, plates were washed twice with PBS^+ (55 μl per well; PBS containing 0.9 mM Ca^2+ and 0.5 mM Mg^2+). PBS^+ was fully removed, and cells were supplemented with 15 μl PBS^+. Then, 5 μl of 4× concentrated stocks of IVA or vehicle in dilution buffer [PBS^+, 0.1 μM forskolin, and 0.2% bovine serum albumin (fatty acid free) (pH 7.4)] were added and incubated for 30 min in the dark. For experiments with I-172 (Sigma- Aldrich), the inhibitor was added to the mix with either IVA or vehicle to reach a final concentration in cells of 20 μM. Then, plates were transferred to the FLIPR Tetra (fluorescence imaging plate reader; Molecular Devices: excitation: 470 to 495 nm; emission: 526 to 585 nm), baseline fluorescence reading of the YFP signal was performed for 6 s (10 × 0.6 s intervals) after which 25 μl of iodide buffer [137 mM NaI, 2.7 mM KCl, 1.5 mM KH2PO4, 8.1 mM Na2HPO4, 1 mM CaCl2, and 0.5 mM MgCl2 (pH 7.4)] was added, and fluorescence reading was continued for 70 s (50 × 0.6 s intervals; 20 x 2 s intervals) to assess YFP quenching through CFTR-mediated iodide influx. For analysis, fluorescence traces were aligned and normalized at the last time point before iodide addition (normalized fluorescence = 1). Normalized fluorescence values obtained 20 s after the beginning of the assay were used to assess the degree of YFP quenching, i.e., CFTR function (see fig. S1J). […] Then, plates were read and analyzed as above. […] Then, plates were transferred to the FLIPR Tetra and read and analyzed as above.

F508del-CFTR, sequence (P13569 with tags, fused parts or gaps DEL508-508): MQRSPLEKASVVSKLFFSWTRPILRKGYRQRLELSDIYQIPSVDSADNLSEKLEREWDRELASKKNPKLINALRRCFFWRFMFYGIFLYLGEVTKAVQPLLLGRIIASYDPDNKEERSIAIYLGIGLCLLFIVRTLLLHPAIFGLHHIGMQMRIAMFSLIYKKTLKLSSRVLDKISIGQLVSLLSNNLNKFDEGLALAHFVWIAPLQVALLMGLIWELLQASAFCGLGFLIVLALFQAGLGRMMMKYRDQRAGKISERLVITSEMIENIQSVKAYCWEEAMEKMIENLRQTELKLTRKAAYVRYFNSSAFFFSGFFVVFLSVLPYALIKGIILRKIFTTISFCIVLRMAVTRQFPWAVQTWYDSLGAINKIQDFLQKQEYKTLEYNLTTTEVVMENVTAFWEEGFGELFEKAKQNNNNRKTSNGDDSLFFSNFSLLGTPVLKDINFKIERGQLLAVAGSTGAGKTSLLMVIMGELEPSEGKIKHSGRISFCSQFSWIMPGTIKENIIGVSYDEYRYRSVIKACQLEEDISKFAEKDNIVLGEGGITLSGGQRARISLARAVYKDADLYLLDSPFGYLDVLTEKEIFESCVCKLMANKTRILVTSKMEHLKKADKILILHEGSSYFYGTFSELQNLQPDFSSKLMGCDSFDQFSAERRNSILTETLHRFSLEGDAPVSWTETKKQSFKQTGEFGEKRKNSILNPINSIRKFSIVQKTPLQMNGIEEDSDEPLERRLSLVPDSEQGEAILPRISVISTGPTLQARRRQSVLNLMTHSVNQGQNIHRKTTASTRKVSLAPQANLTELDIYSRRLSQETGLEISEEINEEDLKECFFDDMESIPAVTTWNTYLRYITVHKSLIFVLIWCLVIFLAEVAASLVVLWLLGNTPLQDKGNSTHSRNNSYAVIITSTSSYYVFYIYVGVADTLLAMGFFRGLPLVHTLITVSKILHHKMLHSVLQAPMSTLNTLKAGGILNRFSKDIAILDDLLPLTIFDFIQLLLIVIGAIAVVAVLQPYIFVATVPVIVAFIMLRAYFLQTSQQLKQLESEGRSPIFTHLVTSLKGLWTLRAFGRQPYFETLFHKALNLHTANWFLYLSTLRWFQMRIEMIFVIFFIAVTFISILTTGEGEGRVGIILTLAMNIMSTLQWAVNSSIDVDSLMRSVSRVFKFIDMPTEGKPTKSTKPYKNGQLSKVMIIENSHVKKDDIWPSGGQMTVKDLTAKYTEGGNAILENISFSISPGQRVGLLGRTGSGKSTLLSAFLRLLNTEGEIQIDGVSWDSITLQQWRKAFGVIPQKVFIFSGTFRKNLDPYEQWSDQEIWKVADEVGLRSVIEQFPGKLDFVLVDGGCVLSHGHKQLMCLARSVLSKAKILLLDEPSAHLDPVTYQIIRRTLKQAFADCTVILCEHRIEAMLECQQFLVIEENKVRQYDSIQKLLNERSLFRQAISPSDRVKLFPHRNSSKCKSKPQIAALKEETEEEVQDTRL

Question: For `COc1cc(CCNC(=O)C2CC(=O)N(C)C(CC(C)C)C(=O)N3CCCCC3C(=O)NC(Cc3ccccc3)COc3ccc4ncc(F)cc4c3C(=O)N2)on1` (stereo not shown) [IDOR-3], which “F508del-CFTR function (YFP quenching)” value is on record?
Answer: strongly increased F508del-CFTR function
